Format in all cases: cell-based, E. coli
The target of test [1] is T1, YdgR Tyr292Phe (Escherichia coli, UniProt P77304, Y292F).
T1 construct: host or cells: E. coli BL21(DE3)pLysS
The test is described as follows: β-Ala-Lys(AMCA) uptake inhibition assay, YdgR Tyr292Phe. The following applies: 0.2 mM β-Ala-Lys(AMCA), 5 min incubation, pH 6.5; ±SEM, n≥3. Here is the method:
(§1) Plasmids were transformed into E. coli BL21(DE3)pLysS cells by heat shock and transformants were selected on agar plates containing 100 µg/mL ampicillin and 34 µg/mL chloramphenicol. Single transformants were inoculated into 2 mL LB-media with antibiotics as above and grown overnight. The cultures were diluted 1∶50 in 5 mL LB-media with antibiotics as above, and at an OD600 of 0.5–0.8 protein expression was induced by the addition of 1 mM isopropyl β-D-1-thiogalactopyranoside (IPTG). The cells were harvested after three hours of induction by centrifugation and resuspended in uptake buffer (50 mM MES pH 6.5, 140 mM NaCl, 5.4 mM KCl, 1.8 mM CaCl2, 0.8 mM MgSO4, and 5 mM glucose).
(§2) Uptake assays were performed as previously described, [20]. In a final assay volume of 100 µL; 0.2 mM β-Ala-Lys-N-7-amino-4-methylcoumarin-3-acetic acid (β-Ala-Lys(AMCA), Biotrend) (10 µL) and various concentrations of ligands (purchased from Bachem or Sigma-Aldrich) or uptake buffer (50 µL) were incubated with bacterial cell suspension (OD600 = 10, 40 µL) at 37°C. […] Finally the cell pellet was resuspended in 100 µL uptake buffer, and the uptake was quantified by fluorescence measurements (excitation at 340 nm and emission at 460 nm) on a Safire 2 fluorimeter. Non-specific uptake was measured as described above on IPTG-induced E. coli BL21(DE3)pLysS cells harboring the empty pTTQ18 vector. […]

Test [2] has as its target T2, WT-YdgR (Escherichia coli, UniProt P77304).
T2 construct: expressed in transfected cells; host or cells: E. coli BL21(DE3)pLysS, pTTQ18-ydgR, IPTG-induced
T2 sequence (P77304 1-500): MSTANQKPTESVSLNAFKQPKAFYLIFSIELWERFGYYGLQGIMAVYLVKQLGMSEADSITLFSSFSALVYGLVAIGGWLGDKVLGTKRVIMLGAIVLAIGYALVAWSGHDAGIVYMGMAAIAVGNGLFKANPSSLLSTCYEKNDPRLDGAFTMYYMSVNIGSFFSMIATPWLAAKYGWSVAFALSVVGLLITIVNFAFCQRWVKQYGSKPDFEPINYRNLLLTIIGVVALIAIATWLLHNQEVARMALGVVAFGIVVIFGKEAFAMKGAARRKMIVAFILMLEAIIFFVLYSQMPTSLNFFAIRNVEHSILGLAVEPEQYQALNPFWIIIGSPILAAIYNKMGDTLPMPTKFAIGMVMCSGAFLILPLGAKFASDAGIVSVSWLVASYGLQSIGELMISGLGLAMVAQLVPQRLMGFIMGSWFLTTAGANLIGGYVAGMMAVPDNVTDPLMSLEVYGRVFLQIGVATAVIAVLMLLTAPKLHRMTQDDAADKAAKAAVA
The test is described as follows: cell-based. The settings on record: IC50 (inhibition of β-Ala-Lys(AMCA) uptake). As for the experimental part:
Plasmids were transformed into E. coli BL21(DE3)pLysS cells by heat shock and transformants were selected on agar plates containing 100 µg/mL ampicillin and 34 µg/mL chloramphenicol. Single transformants were inoculated into 2 mL LB-media with antibiotics as above and grown overnight. The cultures were diluted 1∶50 in 5 mL LB-media with antibiotics as above, and at an OD600 of 0.5–0.8 protein expression was induced by the addition of 1 mM isopropyl β-D-1-thiogalactopyranoside (IPTG). […]
Uptake assays were performed as previously described, [20]. In a final assay volume of 100 µL; 0.2 mM β-Ala-Lys-N-7-amino-4-methylcoumarin-3-acetic acid (β-Ala-Lys(AMCA), Biotrend) (10 µL) and various concentrations of ligands (purchased from Bachem or Sigma-Aldrich) or uptake buffer (50 µL) were incubated with bacterial cell suspension (OD600 = 10, 40 µL) at 37°C. After 5 min, the uptake was stopped by addition of 500 µL ice-cold uptake buffer followed by immediate centrifugation and washing twice in ice-cold uptake buffer. Finally the cell pellet was resuspended in 100 µL uptake buffer, and the uptake was quantified by fluorescence measurements (excitation at 340 nm and emission at 460 nm) on a Safire 2 fluorimeter. Non-specific uptake was measured as described above on IPTG-induced E. coli BL21(DE3)pLysS cells harboring the empty pTTQ18 vector. All uptake assay experiments were reproduced at least three times independently and data analyses were performed using GraphPad Prism ver. 5.

Test [3] deals with T3, YdgR Tyr71Phe (Escherichia coli, UniProt P77304, Y71F).
T3 construct: host or cells: E. coli BL21(DE3)pLysS
T3 sequence (P77304 whole entry Y71F): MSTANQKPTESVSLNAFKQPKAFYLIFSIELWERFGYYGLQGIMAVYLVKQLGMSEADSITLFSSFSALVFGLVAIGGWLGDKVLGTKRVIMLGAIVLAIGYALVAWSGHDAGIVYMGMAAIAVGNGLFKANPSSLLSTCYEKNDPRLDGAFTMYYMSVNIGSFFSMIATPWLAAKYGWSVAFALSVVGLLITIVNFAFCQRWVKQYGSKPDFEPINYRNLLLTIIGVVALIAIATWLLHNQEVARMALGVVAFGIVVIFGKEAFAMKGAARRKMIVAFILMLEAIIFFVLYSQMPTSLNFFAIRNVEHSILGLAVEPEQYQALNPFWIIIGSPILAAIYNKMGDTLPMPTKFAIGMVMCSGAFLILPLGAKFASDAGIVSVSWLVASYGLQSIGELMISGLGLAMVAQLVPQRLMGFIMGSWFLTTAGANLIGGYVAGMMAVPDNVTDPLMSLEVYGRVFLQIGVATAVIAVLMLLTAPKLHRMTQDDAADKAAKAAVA
The test is described as follows: β-Ala-Lys(AMCA) uptake and inhibition assay, YdgR Tyr71Phe. Here is the method: as §1, §2

Test [4] addresses T4, YdgR Tyr292Ala (Escherichia coli, UniProt P77304, Y292A).
T4 construct: host or cells: E. coli BL21(DE3)pLysS
The test is described as follows: β-Ala-Lys(AMCA) uptake and inhibition assay, YdgR Tyr292Ala. As for the experimental part:
as §1, §2

For test [5], the target named is T5, YdgR Tyr38Phe (Escherichia coli, UniProt P77304, Y38F).
T5 construct: host or cells: E. coli BL21(DE3)pLysS
T5 sequence (P77304 whole entry Y38F): as the sequence (P77304 whole entry Y71F) above, with Y38F, F71Y counted along it
Description: β-Ala-Lys(AMCA) uptake and inhibition assay, YdgR Tyr38Phe. As for the experimental part: as §1, §2

Test [6] has as its target T6, YjdL Lys117Gln (Escherichia coli, UniProt P39276, K117Q).
T6 construct: host or cells: E. coli BL21(DE3)pLysS
Description: β-Ala-Lys(AMCA) uptake assay, YjdL Lys117Gln. The settings on record: 0.2 mM, 5 min, pH 6.5 (Figure 3). As for the experimental part:
as §1, §2

In test [7] the target is T7, YjdL Asp392Glu (Escherichia coli, UniProt P39276, D392E).
T7 construct: host or cells: E. coli BL21(DE3)pLysS
T7 sequence (P39276 whole entry D392E): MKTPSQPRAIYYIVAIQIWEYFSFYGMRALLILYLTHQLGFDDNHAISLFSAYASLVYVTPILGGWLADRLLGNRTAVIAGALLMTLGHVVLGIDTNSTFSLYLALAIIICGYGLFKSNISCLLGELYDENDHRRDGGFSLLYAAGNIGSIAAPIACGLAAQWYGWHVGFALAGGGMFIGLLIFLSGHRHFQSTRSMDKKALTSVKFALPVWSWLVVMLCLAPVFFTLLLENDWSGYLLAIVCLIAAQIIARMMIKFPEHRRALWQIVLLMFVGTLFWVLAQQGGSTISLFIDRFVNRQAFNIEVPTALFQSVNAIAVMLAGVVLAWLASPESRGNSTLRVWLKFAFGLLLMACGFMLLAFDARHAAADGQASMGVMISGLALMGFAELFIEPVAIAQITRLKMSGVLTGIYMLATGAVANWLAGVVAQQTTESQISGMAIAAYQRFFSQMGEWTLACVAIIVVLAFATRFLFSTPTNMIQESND
Description: β-Ala-Lys(AMCA) uptake assay, YjdL Asp392Glu. The settings on record: standard conditions: 0.2 mM, 5 min, pH 6.5 (Figure 3). As for the experimental part: as §1, §2

Test [8] concerns YjdL Tyr113Asn. The test is described as follows: β-Ala-Lys(AMCA) uptake assay, YjdL Tyr113Asn. The following applies: 0.2 mM, 5 min, pH 6.5 (Figure 3). Here is the method: as §1, §2
The target in test [9] is T8, YjdL Tyr25Leu (Escherichia coli, UniProt P39276, Y25L).
T8 construct: expressed in transfected cells; host or cells: E. coli BL21(DE3)pLysS, pTTQ18-yjdL mutant (QuikChange)
T8 sequence (P39276 whole entry Y25L): as the sequence (P39276 whole entry D392E) above, with Y25L, E392D counted along it
Description: β-Ala-Lys(AMCA) uptake assay, YjdL Tyr25Leu. The settings on record: 0.2 mM, 5 min, pH 6.5 (Figure 3). Here is the method:
as §1, §2

For test [10], the target named is T9, YjdL Tyr21Arg (Escherichia coli, UniProt P39276, Y21R).
T9 construct: host or cells: E. coli BL21(DE3)pLysS
T9 sequence (P39276 whole entry Y21R): as the sequence (P39276 whole entry D392E) above, with Y21R, E392D counted along it
The test is described as follows: β-Ala-Lys(AMCA) uptake assay, YjdL Tyr21Arg. The settings on record: 0.2 mM, 5 min, pH 6.5 (Figure 3). As for the experimental part:
as §1, §2

The target in test [11] is T10, YjdL Gly284Met (Escherichia coli, UniProt P39276, G284M).
T10 construct: host or cells: E. coli BL21(DE3)pLysS
T10 sequence (P39276 whole entry G284M): as the sequence (P39276 whole entry D392E) above, with G284M, E392D counted along it
Description: β-Ala-Lys(AMCA) uptake assay, YjdL Gly284Met. The following applies: 0.2 mM, 5 min, pH 6.5 (Figure 3). Here is the method:
as §1, §2

In test [12] the target is T11, YjdL Lys117Arg (Escherichia coli, UniProt P39276, K117R).
T11 construct: host or cells: E. coli BL21(DE3)pLysS
T11 sequence (P39276 whole entry K117R): as the sequence (P39276 whole entry D392E) above, with K117R, E392D counted along it
Description: β-Ala-Lys(AMCA) uptake assay, YjdL Lys117Arg. The following applies: 0.2 mM, 5 min, pH 6.5 (Figure 3). Here is the method:
as §1, §2

[13] abbreviates: 0.2 mM β-Ala-Lys(AMCA), 5 min incubation, pH 6.5, ±SEM, n≥3.
Where [14] appears, read: 0.2 mM, 5 min, pH 6.5 (Figure 4).

Residues, ends and D or L forms follow the SMILES beside them.

T4 sequence (P77304 whole entry Y292A): as the sequence (P77304 whole entry Y71F) above, with F71Y, Y292A counted along it
T1 sequence (P77304 whole entry Y292F): as the sequence (P77304 whole entry Y71F) above, with F71Y, Y292F counted along it
T6 sequence (P39276 whole entry K117Q): as the sequence (P39276 whole entry D392E) above, with K117Q, E392D counted along it

The term IC50 denotes the point on the concentration scale where inhibition reaches its midpoint. With `C[C@H](N)C(=O)N[C@@H](C)C(=O)O` [Ala-Ala] (H-Ala-Ala-OH), the IC50 in [1] is 150 ± 30 µM; in [2] (WT-YdgR a), 390 ± 40 µM; in test [2] (WT-YdgR b), 1040 ± 60 µM; in test [3] (setting [13]), 370 ± 30 µM; in test [4] (setting [13]) it was 590 ± 50 µM; in test [5] (0.5 mM β-Ala-Lys(AMCA), 15 min incubation, pH 6.5, ±SEM, n≥3, read-out: IC50 (inhibition of β-Ala-Lys(AMCA) uptake), YdgR Tyr38Phe b) it was 920 ± 60 µM.
Turning to “β-Ala-Lys-N-7-amino-4-methylcoumarin-3-acetic acid [β-Ala-Lys(AMCA)]”, the “β-Ala-Lys(AMCA) uptake level, YjdL Lys117Gln” value in [6] came to 9%. The “β-Ala-Lys(AMCA) uptake level, YjdL Asp392Glu” value in [7] is on record as 26%. In addition, in test [8], the “increase of β-Ala-Lys(AMCA) uptake, YjdL Tyr113Asn” value is reported as around 2 fold. Also, the “β-Ala-Lys(AMCA) uptake level, YdgR Tyr71Phe” value in test [3] (setting [14]) was 27%. In addition, the “β-Ala-Lys(AMCA) uptake level, YjdL Tyr25Leu” value in test [9] turned out to be 14%. Moreover, the “β-Ala-Lys(AMCA) uptake level, YjdL Tyr21Arg” value in test [10] was found to be 11%. Further, the “β-Ala-Lys(AMCA) uptake level, YjdL Gly284Met” value in [11] amounted to 20%. Besides, the “β-Ala-Lys(AMCA) uptake level, YjdL Lys117Arg” value in [12] stood at 17%. Also, the “increase of β-Ala-Lys(AMCA) uptake, YdgR Tyr292Ala” value in [4] (setting [14]) is given as around 4 fold. The “β-Ala-Lys(AMCA) uptake level, YdgR Tyr38Phe” value in test [5] (setting [14]) is reported as 10%.
